# Measured values: US20160375155A1, “Collagen Imaging Compositions” (Collagen Medical, LLC, priority 2015, published 2016)
# Tests used:
# [1] = Relaxivity in PBS (Bruker mq60, 60 MHz); type: physicochemical; conditions: pH 7.4 PBS at 1.4 T, 37° C.
# Experimental: The relaxivity of Compound ID Nos. 1, 2 and 4 were determined in PBS at 37° C. using a Bruker mq60 spectrometer operating at 60 MHz (1.4 tesla). Samples were equilibrated at concentrations ranging from 0-200 μM for at least 30 minutes at 37° C. T1 was measured using an inversion recovery sequence. Relaxivities were calculated by subtracting the relaxation rate of the buffer […] and then dividing the result by the concentration of Compound.
# [2] = test system: hypoperfused vs normally perfused myocardium; type: in vivo, canine
# Experimental: To mimic severe ischemia, a canine model was used in which an inflatable variable vascular occluder was placed around the left anterior descending coronary artery (LAD) to allow occlusion and reperfusion. Imaging was performed on a 3 T clinical scanner 4 days after implantation of the occluder. The conventional saturation recovery pulse sequence for stress perfusion imaging was compared with a segmented inversion method. The purpose of the segmented inversion method was to leverage the steady-state properties of Compound ID No. 1. This segmented inversion recovery pulse sequence provides greater T1 weighting, higher spatial resolution, and greater myocardial tissue contrast. Additionally, since imaging is delayed, the entire heart can be imaged. After baseline MRI scanning, the balloon was inflated. Compound ID No. 1 was administered as an i.v. bolus at a dose of 7.5 μmol/kg one minute after coronary artery occlusion. The occlusion was maintained for an additional 4 minutes, after which blood flow was restored. Imaging was performed prior to occlusion release and at multiple time points following reperfusion (up to 120 minutes after reperfusion, see FIG. 20)
# To assess relative perfusion, labeled microspheres were administered at 3 timepoints in the study. La-labeled microspheres were given before coronary artery occlusion, Au-labeled microspheres were given during coronary artery occlusion, and Lu-labeled microspheres were given after reperfusion. In addition, prior to euthanasia, the variable occluder was re-inflated and fluorescent microspheres were administered in combination with KCl to arrest the heart and visually delineate the area of hypo-perfusion. The animal was sacrificed at ca. 120 minutes post Compound ID No. 1 and the heart removed and sectioned according to American Heart Association guidelines (M D Cerqueira et al, Circulation, 2002, 105:539-42). At autopsy under ultraviolet light, the hypo-perfused myocardium was differentiated from normal myocardium due to the lack of fluorescence in the hypo-perfused tissue. Based on the fluorescence, a sample of the ischemic territory and a sample of the remote myocardium were taken for ex vivo analysis. These tissue samples were weighed, digested in nitric acid, and analyzed for the elements La, Au, Lu (the three microsphere injections) and gadolinium (Compound ID No. 1) using ICP-MS. Concentrations in the ischemic tissue were compared to that of the remote myocardium to assess regional flow and probe uptake.
# Data were quantitatively evaluated at pre-contrast, at 6 minutes post-contrast, and 15 minutes post-contrast using signal-to-noise ratios (SNR) for normally perfused myocardium, SNR for hypo-perfused myocardium, and contrast to noise ratio (CNR) for normal-to-hypoperfused myocardium, Tables 8-10 and FIG. 23. […]
# [3] = Pharmacokinetics (rat), plasma gadolinium by ICP-MS; type: in vivo, Sprague Dawley rats; conditions: 1.3 umol/kg iv bolus in 80 mM sucrose, pH 7, 2-90 minutes
# Experimental: Compound ID No. 1 was formulated at pH 7 in 80 mM sucrose and administered to Sprague Dawley rats (n=2) at dose of 1.3 umol/kg using a bolus IV injection. Plasma was sampled at 2, 5, 15, 30, and 90 minutes post-injection and analyzed for gadolinium content using ICP-MS (FIG. 15).
# [4] = target: Native canine Collagen Type I and III protein; assay: Collagen binding assay, dried dog collagen plate; conditions: 37° C., pH 7.4; collagen 5 μM; fit to 1 binding site
# Experimental: Canine collagen (Native canine Collagen Type I and III protein, YO protein AB, cat#739) is dissolved in 0.5 M acetic acid at 3.3 mg/ml by vortexing and shaking overnight at 4° C. The solution is then dialyzed against 10 mM Phosphate (NaH2PO4), pH 4.2 at 4° C. with three changes of the dialysis buffer.
# Ice-cold 1×PBS pH 10.8 is added to the collagen solution for a final collagen concentration of 10 μM, pH 7.4. Collagen solutions are gelled and dried down in the wells of a 96 well microtiter plate (Corning Polystyrene Flat Bottom, cat#3641). 70 μl of 10 μM collagen is aliquoted into each well in every other lane in the plate (48 wells) and the plate is incubated at 37° C. for 18 hours to form a gel and evaporate to dryness. Ungelled collagen is removed by washing the collagen films with 200 μl 1×PBS pH 7.4 (four times, 15 min per wash). The thin collagen fibril film remains, coating the bottom of each well. After washing by PBS the plate is again dried at 37° C. for 2 hours and is stored at −20° C. The final well content of gelled collagen is measured by determination of hydroxyproline and is around 180 μg/ml.
# a serial dilution of 0.2 μM-30 μM of the peptide chelate is prepared in PBS, pH 7.4 (˜300 μL of solution for each concentration). 90 μl of each concentration is also reserved in a HPLC glass vial as a sample to measure the total concentration. 140 μL of each dilution of peptide chelate is added to wells containing and non-containing collagen (control for nonspecific plastic binging). The plate is then incubated on a shaker table (300 rpm) for 2 hours at room temperature to allow the compound to bind. […] The concentration of free, unbound compound in the sample supernatants and the concentration of compound in the reserved (total) sample are determined by ICP-MS (Agilent 7500, gadolinium concentration). The concentration of compound bound to collagen is determined as [bound]=[total]−[unbound].
# The binding of compounds to human, rat and dog collagen (5 μM) was measured over the concentration range 0.2-5 μM of Comp ID Nos.: 1-4. […]
# [5] = test system: myocardial collagen; conditions: rat MI model, healthy and infarcted heart
# Experimental: Myocardial infarction was induced in Sprague Dawley rats by occlusion of the left anterior descending coronary artery followed by reperfusion. The rats were anesthetized with an intraperitoneal (i.p.) injection of 100 μg pentobarbital sodium per gram body weight and a thorocotamy was performed. The pericardium was removed and the left anterior artery was sutured with a 7.0 silk suture for 60 minutes after which reperfusion was established.
# Animals were sacrificed at 60 minutes post-injection and the heart removed and sectioned for analysis.
# The slope for this correlation is a measure of efficacy.
structure (smiles),measurement,setting,value
CC(C)C[C@H](NC(=O)[C@@H]1CSSC[C@H](NC(=O)[C@H](Cc2c[nH]cn2)NC(=O)[C@H](Cc2c[nH]c3ccccc23)NC(=O)[C@H](CCCCNC(=O)CC[C@H](C(=O)O)N2CCN(CC(=O)O)CCN(CC(=O)O)CCN(CC(=O)O)CC2)NC(=O)CNC(=O)CC[C@H](C(=O)O)N2CCN(CC(=O)O)CCN(CC(=O)O)CCN(CC(=O)O)CC2)C(=O)N[C@@H]([C@@H](C)O)C(=O)N[C@@H]([C@@H](C)O)C(=O)N[C@@H](CCCCNC(=O)CC[C@H](C(=O)O)N2CCN(CC(=O)O)CCN(CC(=O)O)CCN(CC(=O)O)CC2)C(=O)N[C@@H](Cc2ccccc2)C(=O)N2CCC[C@H]2C(=O)N[C@@H](Cc2c[nH]cn2)C(=O)N[C@@H](Cc2c[nH]cn2)C(=O)N[C@@H](Cc2ccc(O)cc2)C(=O)N1)C(=O)N[C@@H](Cc1ccc(O)cc1)C(=O)N[C@@H](Cc1ccc(-c2ccccc2)cc1)C(N)=O [Compound ID No. 1],R1 (relaxivity),[1],43.4 mM⁻¹ s⁻¹
same,ΔCNR relative to EP-3600 study,"[2]; 7.5 μmol/kg vs 12.3 μmol/kg EP-3600 (pig, literature)",3 to 4 fold
same,visualization of myocardial perfusion defect,[2]; MRI after 7.5 μmol/kg,readily visualized
same,change in SNR of hypoperfused myocardium vs pre-contrast,[2]; post injection,not significantly higher compared to the pre-contrast image
same,change in SNR of normally perfused myocardium vs pre-contrast,"[2]; post injection, persists at 15 min, P<0.01",strong and significant increase in SNR
same,pharmacokinetic profile (plasma gadolinium),[3],rapid initial blood clearance
same,Kd,[4],4.4 µM
same,"calculated slope, hydroxyproline vs. gadolinium concentration",[5],8498
